# According to US9034896B2, “N-(imidazolidin-2-ylidene)-heterocyclopenta[b]pyridine derivatives as modulators of alpha 2 adrenergic receptors” (Allergan, Inc., priority 2011, dated 2015):
# Assays:
# Format in all cases: cell-based
# [1] = biological target: T1, Alpha 2C adrenergic receptor (Homo sapiens, UniProt P18825); assay: RSAT (Receptor Selection and Amplification Technology) assay, alpha 2C; conditions: for EC50: read-out: Intrinsic Activity EC50 Alpha 2C; for Intrinsic Activity (efficacy) Alpha 2C: relative efficacy compared to a standard full agonist
# T1 construct: expressed in transfected cells
# T1 sequence (P18825 1-462): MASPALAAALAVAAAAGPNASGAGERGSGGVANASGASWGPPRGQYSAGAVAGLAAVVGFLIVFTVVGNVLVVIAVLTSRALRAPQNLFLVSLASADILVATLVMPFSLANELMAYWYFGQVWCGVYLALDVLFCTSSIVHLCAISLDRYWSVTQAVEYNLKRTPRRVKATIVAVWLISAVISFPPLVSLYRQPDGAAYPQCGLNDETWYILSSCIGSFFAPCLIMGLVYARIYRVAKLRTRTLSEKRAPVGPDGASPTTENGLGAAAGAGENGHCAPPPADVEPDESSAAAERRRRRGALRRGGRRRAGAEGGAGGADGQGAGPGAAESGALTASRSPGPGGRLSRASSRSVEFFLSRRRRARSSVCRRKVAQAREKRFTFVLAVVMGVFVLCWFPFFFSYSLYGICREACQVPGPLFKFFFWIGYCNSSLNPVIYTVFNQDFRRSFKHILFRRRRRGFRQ
# Experimental: (§1) Cells expressing each of the alpha 2 adrenergic receptors alone were incubated with the various compounds and a receptor-mediated growth response was measured. The compound's activity is expressed as its relative efficacy compared to a standard full agonist (see Table 3).
# [2] = biological target: T2, Alpha 2B adrenergic receptor (Homo sapiens, UniProt P18089); assay: RSAT (Receptor Selection and Amplification Technology) assay, alpha 2B; conditions: for EC50 / Intrinsic Activity EC50 Alpha 2B: cells expressing alpha 2B receptor alone, receptor-mediated growth response, NA = not active; for EC50: read-out: Intrinsic Activity EC50 Alpha 2B; for Intrinsic Activity (efficacy) Alpha 2B: relative efficacy compared to a standard full agonist
# T2 construct: expressed in transfected cells
# T2 sequence (P18089 1-450): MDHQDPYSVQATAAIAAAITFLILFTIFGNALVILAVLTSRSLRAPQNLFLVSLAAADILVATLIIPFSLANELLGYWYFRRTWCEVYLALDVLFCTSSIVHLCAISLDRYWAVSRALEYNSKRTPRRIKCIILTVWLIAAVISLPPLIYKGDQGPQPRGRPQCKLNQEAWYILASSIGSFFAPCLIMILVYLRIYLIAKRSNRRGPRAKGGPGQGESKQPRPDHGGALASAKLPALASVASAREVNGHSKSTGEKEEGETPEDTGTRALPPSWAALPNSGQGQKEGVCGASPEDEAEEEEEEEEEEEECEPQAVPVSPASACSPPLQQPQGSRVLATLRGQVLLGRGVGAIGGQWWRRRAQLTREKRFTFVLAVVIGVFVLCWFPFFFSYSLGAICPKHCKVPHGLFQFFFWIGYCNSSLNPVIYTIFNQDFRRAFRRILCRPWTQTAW
# Experimental: as §1
# [3] = biological target: T3, Alpha 2A adrenergic receptor (Homo sapiens, UniProt P08913); assay: RSAT (Receptor Selection and Amplification Technology) assay, alpha 2A; conditions: for EC50: cells expressing alpha 2A receptor alone, receptor-mediated growth response, NA = not active, read-out: Intrinsic Activity EC50 Alpha 2A; for Intrinsic Activity (efficacy) Alpha 2A: relative efficacy compared to a standard full agonist
# T3 construct: expressed in transfected cells
# T3 sequence (P08913 1-465): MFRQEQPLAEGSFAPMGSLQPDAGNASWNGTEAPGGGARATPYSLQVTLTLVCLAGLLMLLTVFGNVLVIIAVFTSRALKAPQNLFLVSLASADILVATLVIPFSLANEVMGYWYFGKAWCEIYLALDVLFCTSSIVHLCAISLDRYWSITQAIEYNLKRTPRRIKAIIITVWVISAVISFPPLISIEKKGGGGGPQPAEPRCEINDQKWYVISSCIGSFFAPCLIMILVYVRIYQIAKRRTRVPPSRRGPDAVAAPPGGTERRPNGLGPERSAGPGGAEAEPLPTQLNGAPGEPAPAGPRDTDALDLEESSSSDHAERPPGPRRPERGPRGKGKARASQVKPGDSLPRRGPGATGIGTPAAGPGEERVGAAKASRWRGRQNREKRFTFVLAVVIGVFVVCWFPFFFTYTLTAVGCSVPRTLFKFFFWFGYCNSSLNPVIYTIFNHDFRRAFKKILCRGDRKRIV
# Experimental: as §1
# [4] = cells expressing alpha 2C receptor alone, receptor-mediated growth response, NA = not active
Structure (SMILES),"EC50 [1, 4] [nM]",Intrinsic Activity (efficacy) Alpha 2C [1],EC50 [2] [nM],Intrinsic Activity (efficacy) Alpha 2B [2],EC50 [3] [nM],Intrinsic Activity (efficacy) Alpha 2A [3],"Intrinsic Activity EC50 Alpha 2C [1, 4]",Intrinsic Activity EC50 Alpha 2B [2]
"Cn1ccc2cc(N=C3NCCN3)cnc21 [Compound 4, N-(imidazolidin-2-ylidene)-1-methyl-1H-pyrrolo[2,3-b]pyridin-5-amine]",31,0.93,114,0.57,,,,
"Cc1c(N=C2NCCN2)cnc2[nH]ccc12 [Compound 1, N-(4,5-dihydro-1H-imidazol-2-yl)-4-methyl-1H-pyrrolo[2,3-b]pyridin-5-amine]",,(0.94),,(0.82),8.2,0.85,potent,potent
"c1nc2cc(N=C3NCCN3)cnc2s1 [Compound 6, N-(4,5-dihydro-1H-imidazol-2-yl)thiazolo[5,4-b]pyridin-6-amine]",10,0.97,267,0.46,,,,
"c1nc2cc(N=C3NCCN3)cnc2[nH]1 [Compound 8, N-(imidazolidin-2-ylidene)-3H-imidazo[4,5-b]pyridin-6-amine]",448,0.87,722,0.61,,,,
"Brc1c(N=C2NCCN2)cnc2[nH]ccc12 [Compound 3, 4-Bromo-N-(imidazolidin-2-ylidene)-1H-pyrrolo[2,3-b]pyridin-5-amine]",31.2,0.84,32.6,0.17,62.2,0.16,,
"Clc1c(N=C2NCCN2)cnc2[nH]ccc12 [Compound 2, 4-Chloro-N-(imidazolidin-2-ylidene)-1H-pyrrolo[2,3-b]pyridin-5-amine]",10.5,0.91,5.36,0.72,25.2,0.73,,
"c1cc2cc(N=C3NCCN3)cnc2o1 [Compound 5, N-(imidazolidin-2-ylidene)furo[2,3-b]pyridin-5-amine]",2110,0.73,,,,,,
"c1cc2cc(N=C3NCCN3)cnc2[nH]1 [Compound 7, N-(imidazolidin-2-ylidene)-1H-pyrrolo[2,3-b]pyridin-5-amine]",7.3,0.94,,(0.87),16.2,0.89,,potent
